# Experimental data from patent US8952024B2, “Herbicidal pyrimidone derivatives” (E I du Pont de Nemours and Company, priority 2009, dated 2015).
# Tests used:
# Format in all cases: in vivo
# [1] = tested on: goosegrass (Eleusine indica); assay: Test B pre-/postemergence plant response
# Outline: (§1)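 Visual ratings on a 0–100 scale (100 = complete control) were made versus untreated controls 13–15 days after treatment in a greenhouse. Compounds in surfactant-containing non-phytotoxic solvent were applied preemergence to seeds in loam–sand blend or postemergence to 1- to 4-leaf plants (2–18 cm).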
# [2] = tested on: johnsongrass (Sorghum halepense); assay: Test B pre-/postemergence plant response
# Outline: as §1
# [3] = tested on: morningglory (Ipomoea coccinea); assay: Test B pre-/postemergence plant response
# Outline: as §1
# [4] = tested on: wheat (Triticum aestivum); assay: Test B pre-/postemergence plant response
# Outline: as §1
# [5] = tested on: giant foxtail (Setaria faberii); assay: Test B pre-/postemergence plant response
# Outline: as §1
# [6] = tested on: woolly cupgrass (Eriochloa villosa); assay: Test B pre-/postemergence plant response
# Outline: as §1
# [7] = tested on: umbrella sedge (Cyperus difformis); assay: Test B flooded paddy test; settings: for Plant response rating, Flood, Sedge, Umbrella: 250 g ai/ha, flooded paddy test, visual rating on 0 to 100 scale (0 no effect, 100 complete control) after 13 to 15 days; for Plant response rating, Sedge, Umbrella: Flood (flooded paddy test), 13 to 15 days
# Outline: (§2)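 Post-flood paddy application: compounds are introduced into water 3 cm deep over the soil, reaching plants at the 2-leaf stage. The water level is maintained, and after 13–15 days under greenhouse conditions, response is judged by eye relative to controls, where 100 means complete control.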
# [8] = tested on: ducksalad (Heteranthera limosa); assay: Test B flooded paddy test; settings: for Plant response rating, Flood, Ducksalad: 250 g ai/ha, flooded paddy test, visual rating on 0 to 100 scale (0 no effect, 100 complete control) after 13 to 15 days; for Plant response rating, Ducksalad: Flood (flooded paddy test), 13 to 15 days
# Outline: as §2
# [9] = tested on: barnyardgrass (Echinochloa crus-galli); assay: Test B flooded paddy test; settings: for Plant response rating, Flood, Barnyardgrass: 250 g ai/ha, flooded paddy test, visual rating on 0 to 100 scale (0 no effect, 100 complete control) after 13 to 15 days; for Plant response rating, Barnyardgrass: Flood (flooded paddy test), 13 to 15 days
# Outline: as §2
# rice (Oryza sativa) = assay: Test B flooded paddy test; settings: for Plant response rating, Flood, Rice: 250 g ai/ha, flooded paddy test, visual rating on 0 to 100 scale (0 no effect, 100 complete control) after 13 to 15 days; for Plant response rating, Rice: Flood (flooded paddy test), 13 to 15 days
# Outline: as §2
# [10] = tested on: pigweed (Amaranthus retroflexus); assay: Test A pre-/postemergence plant response
# Outline: (§3)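 Visually rated 0–100 injury (100 = complete control) versus untreated plants, ~10 days in greenhouse. Application pre- (soil spray, loam/sand) and postemergence (2–10 cm, 1–2 leaf stage), same timepoint.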
# [11] = tested on: morningglory (Ipomoea spp.); assay: Test A pre-/postemergence plant response
# Outline: as §3
# [12] = 250 g ai/ha, Preemergence, 0 to 100 scale
# [13] = Postemergence, 31 g ai/ha, scale 0 to 100 (0 no effect, 100 complete control)
# [14] = Postemergence, 62 g ai/ha, scale 0 (no effect) to 100 (complete control), 13 to 15 days
# [15] = Postemergence, 125 g ai/ha, visual rating after 13 to 15 days, scale 0 (no effect) to 100 (complete control)
# [16] = Postemergence, 250 g ai/ha, scale 0 to 100
# [17] = Preemergence, 31 g ai/ha, scale 0 to 100 (0 no effect, 100 complete control)
# [18] = Preemergence, 125 g ai/ha, 0 to 100 scale
# [19] = Preemergence, 62 g ai/ha, scale 0 to 100, 0 no effect, 100 complete control
# [20] = 31 g ai/ha, scale of 0 to 100 where 0 is no effect and 100 is complete control
# [21] = 62 g ai/ha, scale 0 to 100, 0 is no effect, 100 is complete control
# [22] = 125 g ai/ha, scale 0 to 100, 0 is no effect, 100 is complete control
# [23] = Postemergence, 125 g ai/ha, visual injury, 0 to 100 scale (0 no effect, 100 complete control), approx. ten days
# [24] = Postemergence, 500 g ai/ha, 0 to 100 scale, 0 = no effect, 100 = complete control, approx. ten days
# [25] = Preemergence, 125 g ai/ha, 0 to 100 scale, 0 = no effect, 100 = complete control
# [26] = Preemergence, 500 g ai/ha, visual injury, 0 to 100 scale (0 no effect, 100 complete control), approx. ten days
substance,measurement,setting,value
5-[(1-ethyl-5-hydroxy-1H-pyrazol-4-yl)carbonyl]-2-phenyl-3-(phenylmethyl)-4(3H)-pyrimidinone [Compound 20],"Plant response rating, Goosegrass",[1]; [12],98
same,"Plant response rating, Goosegrass",[1]; [13],15
same,"Plant response rating, Goosegrass",[1]; [14],50
same,"Plant response rating, Goosegrass",[1]; [15],70
same,Goosegrass plant response rating,[1]; [16],95
same,"Plant response rating, Goosegrass",[1]; [17],30
same,Goosegrass plant response rating,[1]; [18],85
same,"Plant response rating, Johnsongrass",[2]; [12],10
same,"Plant response rating, Johnsongrass",[2]; [13],0
same,"Plant response rating, Johnsongrass",[2]; [14],0
same,Johnsongrass plant response rating,[2]; [16],15
same,"Plant response rating, Johnsongrass",[2]; [17],0
same,"Plant response rating, Johnsongrass",[2]; [19],0
same,Johnsongrass plant response rating,[2]; [18],0
same,"Plant response rating, Morningglory",[3]; [12],100
same,"Plant response rating, Morningglory",[3]; [13],15
same,"Plant response rating, Morningglory",[3]; [14],20
same,"Plant response rating, Morningglory",[3]; [15],55
same,Morningglory plant response rating,[3]; [16],70
same,"Plant response rating, Morningglory",[3]; [17],100
same,"Plant response rating, Morningglory",[3]; [19],100
same,Morningglory plant response rating,[3]; [18],100
same,"Plant response rating, Wheat",[4]; [12],0
same,"Plant response rating, Wheat",[4]; [13],0
same,"Plant response rating, Wheat",[4]; [14],0
same,"Plant response rating, Wheat",[4]; [15],10
same,Wheat plant response rating,[4]; [16],30
same,"Plant response rating, Wheat",[4]; [17],0
same,"Plant response rating, Wheat",[4]; [19],0
same,Wheat plant response rating,[4]; [18],0
same,"Plant response rating, Foxtail, Giant",[5]; [12],0
same,"Plant response rating, Foxtail, Giant",[5]; [13],15
same,"Plant response rating, Foxtail, Giant",[5]; [14],45
same,"Plant response rating, Foxtail, Giant",[5]; [15],60
same,"Foxtail, Giant plant response rating",[5]; [16],65
same,"Plant response rating, Foxtail, Giant",[5]; [17],0
same,"Plant response rating, Foxtail, Giant",[5]; [19],0
same,"Foxtail, Giant plant response rating",[5]; [18],0
same,"Plant response rating, Cupgrass, Woolly",[6]; [12],10
same,"Plant response rating, Cupgrass, Woolly",[6]; [13],0
same,"Plant response rating, Cupgrass, Woolly",[6]; [14],15
same,"Plant response rating, Cupgrass, Woolly",[6]; [15],20
same,"Cupgrass, Woolly plant response rating",[6]; [16],55
same,"Plant response rating, Cupgrass, Woolly",[6]; [17],0
same,"Plant response rating, Cupgrass, Woolly",[6]; [19],0
same,"Cupgrass, Woolly plant response rating",[6]; [18],0
same,"Plant response rating, Flood, Sedge, Umbrella",[7],60
same,"Plant response rating, Sedge, Umbrella",[7]; [20],40
same,"Plant response rating, Sedge, Umbrella",[7]; [21],50
same,"Plant response rating, Sedge, Umbrella",[7]; [22],60
same,"Plant response rating, Flood, Ducksalad",[8],70
same,"Plant response rating, Ducksalad",[8]; [20],0
same,"Plant response rating, Ducksalad",[8]; [21],0
same,"Plant response rating, Ducksalad",[8]; [22],70
same,"Plant response rating, Flood, Barnyardgrass",[9],0
same,"Plant response rating, Barnyardgrass",[9]; [20],0
same,"Plant response rating, Barnyardgrass",[9]; [21],0
same,"Plant response rating, Barnyardgrass",[9]; [22],0
same,"Plant response rating, Flood, Rice",rice (Oryza sativa),0
same,"Plant response rating, Rice",rice (Oryza sativa); [20],0
same,"Plant response rating, Rice",rice (Oryza sativa); [21],0
same,"Plant response rating, Rice",rice (Oryza sativa); [22],0
same,Pigweed plant response rating,[10]; [23],100
same,"Plant response rating, Pigweed",[10]; [24],100
same,"Plant response rating, Pigweed",[10]; [25],80
same,"Plant response rating, Pigweed",[10]; [26],100
same,Morningglory plant response rating,[11]; [23],80
same,"Plant response rating, Morningglory",[11]; [24],90
same,"Plant response rating, Morningglory",[11]; [25],0
same,"Plant response rating, Morningglory",[11]; [26],100
5-[(2-hydroxy-6-oxo-1-cyclohexen-1-yl)carbonyl]-3-(2-methoxyethyl)-2-(3-thienyl)-4(3H)-pyrimidinone [Compound 97],"Plant response rating, Goosegrass",[1]; [12],98
same,"Plant response rating, Goosegrass",[1]; [13],45
same,"Plant response rating, Goosegrass",[1]; [14],75
same,"Plant response rating, Goosegrass",[1]; [15],95
same,Goosegrass plant response rating,[1]; [16],98
same,"Plant response rating, Goosegrass",[1]; [17],0
same,Goosegrass plant response rating,[1]; [18],95
same,"Plant response rating, Johnsongrass",[2]; [12],75
same,"Plant response rating, Johnsongrass",[2]; [13],0
same,"Plant response rating, Johnsongrass",[2]; [14],55
same,"Plant response rating, Johnsongrass",[2]; [15],60
same,Johnsongrass plant response rating,[2]; [16],75
same,"Plant response rating, Johnsongrass",[2]; [17],0
same,"Plant response rating, Johnsongrass",[2]; [19],10
same,Johnsongrass plant response rating,[2]; [18],60
same,"Plant response rating, Morningglory",[3]; [12],40
same,"Plant response rating, Morningglory",[3]; [13],0
same,"Plant response rating, Morningglory",[3]; [14],45
same,"Plant response rating, Morningglory",[3]; [15],45
same,Morningglory plant response rating,[3]; [16],55
same,"Plant response rating, Morningglory",[3]; [17],0
same,"Plant response rating, Morningglory",[3]; [19],0
same,Morningglory plant response rating,[3]; [18],0
same,"Plant response rating, Wheat",[4]; [12],5
same,"Plant response rating, Wheat",[4]; [13],0
same,"Plant response rating, Wheat",[4]; [14],0
same,"Plant response rating, Wheat",[4]; [15],0
same,Wheat plant response rating,[4]; [16],5
same,"Plant response rating, Wheat",[4]; [17],0
same,Wheat plant response rating,[4]; [18],0
same,"Plant response rating, Foxtail, Giant",[5]; [12],45
same,"Plant response rating, Foxtail, Giant",[5]; [13],70
same,"Plant response rating, Foxtail, Giant",[5]; [14],75
same,"Plant response rating, Foxtail, Giant",[5]; [15],80
same,"Foxtail, Giant plant response rating",[5]; [16],95
same,"Plant response rating, Foxtail, Giant",[5]; [17],0
same,"Plant response rating, Foxtail, Giant",[5]; [19],0
same,"Foxtail, Giant plant response rating",[5]; [18],0
same,"Plant response rating, Cupgrass, Woolly",[6]; [12],40
same,"Plant response rating, Cupgrass, Woolly",[6]; [13],60
same,"Plant response rating, Cupgrass, Woolly",[6]; [14],70
same,"Plant response rating, Cupgrass, Woolly",[6]; [15],70
same,"Cupgrass, Woolly plant response rating",[6]; [16],75
same,"Plant response rating, Cupgrass, Woolly",[6]; [17],0
same,"Plant response rating, Cupgrass, Woolly",[6]; [19],10
same,"Cupgrass, Woolly plant response rating",[6]; [18],35
same,"Plant response rating, Flood, Sedge, Umbrella",[7],55
same,"Plant response rating, Sedge, Umbrella",[7]; [20],0
same,"Plant response rating, Sedge, Umbrella",[7]; [21],40
same,"Plant response rating, Sedge, Umbrella",[7]; [22],55
same,"Plant response rating, Flood, Ducksalad",[8],80
same,"Plant response rating, Ducksalad",[8]; [20],0
same,"Plant response rating, Ducksalad",[8]; [21],20
same,"Plant response rating, Ducksalad",[8]; [22],75
same,"Plant response rating, Flood, Barnyardgrass",[9],0
same,"Plant response rating, Barnyardgrass",[9]; [20],0
same,"Plant response rating, Barnyardgrass",[9]; [21],0
same,"Plant response rating, Barnyardgrass",[9]; [22],0
same,"Plant response rating, Flood, Rice",rice (Oryza sativa),0
same,"Plant response rating, Rice",rice (Oryza sativa); [20],0
same,"Plant response rating, Rice",rice (Oryza sativa); [21],0
same,"Plant response rating, Rice",rice (Oryza sativa); [22],0
same,Pigweed plant response rating,[10]; [23],100
same,"Plant response rating, Pigweed",[10]; [24],100
same,"Plant response rating, Pigweed",[10]; [25],100
same,"Plant response rating, Pigweed",[10]; [26],100
same,Morningglory plant response rating,[11]; [23],100
same,"Plant response rating, Morningglory",[11]; [24],100
same,"Plant response rating, Morningglory",[11]; [25],10
same,"Plant response rating, Morningglory",[11]; [26],90
